Legend:
[1] = tested on: dehalogenase in cell free extracts of Rhodococcus Rhodochrous, TDTM-003; assay: Primary screen of dehalogenase activity in cell free extracts of TDTM-003; assay type: biochemical
Method: Following overnight growth, 50 μl of 1-chlorobutane was added to induce the dehalogenase. After 24 hours induction, cells were harvested by centrifugation, resuspended in cold 10mM Tris sulfate/1 mM disodium EDTA, pH=7.5, and disrupted by sonication. Cell debris was removed by centrifugation at 10,000 rpm for 30 minutes, cell free extracts dialyzed overnight against the same buffer, and assayed without dilution for dehalogenase activity.
Free chloride or bromide was assayed qualitatively using a chloride electrode (Orion), or quantitatively using the colorimetric method (430 nm) described by J. G. Bergmann, et al., Anal. Chem., 29:241-243 (1957).
(§1) Hydrolytic dehalogenase enzyme activity was evaluated by adding an appropriate amount of cell free extract or enzyme preparation to 5.0 mL of 100 mM glycine buffer, pH=9.0 in a 7 mL glass vial. The halogenated substrate (5.0 μl) and a small stir bar were added, and the vial capped. Reaction was initiated by transfer to a 30° C. water bath equipped with a magnetic stirrer. Periodically 1.0 mL samples were removed and assayed for free halide. Rates were determined after correcting for non-enzymatic hydrolysis with an appropriate blank. A standard curve was prepared using sodium chloride.
Preliminary studies were performed on cell free extracts of TDTM-003 to evaluate the enzyme substrate selectivity, and the results of this study are shown in Table 2.

[2] = molecular target: partially purified TDTM-003 dehalogenase (Rhodococcus sp. TDTM0003, UniProt P59336); assay: Substrate profile of partially purified TDTM-003 dehalogenase; assay type: biochemical, Rhodococcus species TDTM-003; settings: corrected for non-enzymatic hydrolysis
partially purified TDTM-003 dehalogenase, sequence (P59336 whole entry): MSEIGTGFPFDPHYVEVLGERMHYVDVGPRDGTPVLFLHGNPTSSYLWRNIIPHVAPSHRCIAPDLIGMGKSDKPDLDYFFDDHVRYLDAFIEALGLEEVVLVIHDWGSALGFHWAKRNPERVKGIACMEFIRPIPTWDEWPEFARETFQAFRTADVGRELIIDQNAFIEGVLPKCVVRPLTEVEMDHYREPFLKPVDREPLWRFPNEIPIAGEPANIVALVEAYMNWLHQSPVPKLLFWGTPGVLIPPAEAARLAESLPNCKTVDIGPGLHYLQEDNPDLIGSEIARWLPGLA
Method: as §1
Frozen pellets from 2 liters of culture were thawed into 150 mL of 10 mM Tris sulfate buffer, pH=7.5 containing 1 mM disodium EDTA. This buffer was used throughout the entire purification. The suspension was sonicated for approximately 1 hour with ice cooling using a Microson Ultrasonic Cell Disrupter and centrifuged at 10,000 rpm for 15 minutes to remove cell debris. Supernatant was removed and the sonication/centrifugation repeated with fresh buffer to increase enzyme yield. Overall sonication efficiency was monitored by absorbence at 280 nm. Cell free extracts were combined and brought slowly to 30 percent saturation with solid ammonium sulfate. The suspension was centrifuged at 10,000 rpm for 30 minutes and the pellet discarded. The supernatant was brought to 70 percent saturation with solid ammonium sulfate and centrifugation repeated. Supernatant was discarded and the pellet taken up in a small volume of buffer and dialyzed overnight against 1 liter of the same. The preparation was applied to a 1.5×15cm column of DEAE-Sephadex equilibrated with the same buffer elution carried out with a 1 liter gradient from 0 to 400 mM ammonium sulfate. Fractions of about 7-8 mLs were collected. The active fractions were pooled and brought to 90 percent saturation with ammonium sulfate. The pellet was taken up in a minimal amount of buffer, ultrafiltered to 2.5 mL using 10,000 MWCO Novacell Ultrafiltration cell, and applied to a 1.5×90 cm Sephadex G-100 column. Elution was by gravity at 90 cm and fractions of 7-8 mLs were collected. Active fractions were poled, brought to 30 percent saturation with ammonium sulfate, and applied to a 10 ml column of Butyl-agarose equilibrated in the same. Elution was performed with a 500 mL gradient from 30 percent-0 percent ammonium sulfate. Active fractions were pooled, dialyzed and used for substrate selectivity studies.
To evaluate the substrate selectivity of haloalkane dehalogenase from isolated Rhodococcus species, an enzyme preparation from the strain designated TDTM-003 was purified by the procedure described under General Experimental. This preparation provided a dehalogenase which was approximately 50 percent pure as estimated by SDS-PAGE and was free of interfering halohydrin dehalogenase activity.
The activity of this partially purified TDTM-003 dehalogenase preparation was evaluated against various chlorinated and brominated substrates. Each enzymatic rate was corrected for non-enzymatic hydroloysis.

[3] = tested on: double mutants lacking both ADH and halohydrin dehalogenase activity; assay: Whole cell conversion of DCP, DCB and TCP by double mutants: kinetics, selectivity, enantioselectivity; assay type: cell-based, Rhodococcus species; settings: double mutants grown on succinate, induced with 1-chlorobutane
Method: To evaluate kinetics and selectivity of various mutants with respect to conversion of the target halocarbons, 1,2-dichloropropane (DCP), 1,2-dichloro-butane (DCB) and 1,2,3-trichloropropane (TCP) cultures were first inoculated from slants into 25 mL nutrient media in a 125 mL flask and grown overnight. Five mL were inoculated into 50 mL of MM1X4P containing 5 g/L disodium succinate in a 250 mL flask. Following 4 hours of growth and again at 8 hours, 10 μl of 1-chlorobutane was added for induction of the dehalogenase. Following 24 hours growth, cells were harvested by centrifugation and resuspended into 50 mL of fresh sterile MM1X4P and transferred to a sterile 250 mL shake flask equipped with a bulb feeder as described by Gibson, et al., supra. DCP, DCB, and TCP were added to bulb feeders and reaction progress monitored by gas chromatography (GC). Throughout the protocol, volumes were modified as needed to provide higher concentrations of cells and/or to provide identical batches of induced cells for comparative studies.
(§2) For gas chromatography (GC) analysis of halogenated metabolites, cultures were centrifuged briefly to remove cells, saturated with sodium sulfate, and an equivalent volume of methylene chloride added. The suspension was vortexed vigorously, centrifuged to break the emulsion and the methylene chloride phase removed.
(§3) Analysis of all halocarbon substrates and products from culture broths was done by GC using a Hewlett Packard 5710 equipped with a 7671A Autoinjector with the following protocol:
Analysis for optical activity of microbially produced 2,3-dichloro-1-propanol was determined independently using two methods. […] Enantiomeric composition of DCP, DCB, and respective halohydrins can also be monitored using a derivatized cyclodexdrin gas chromatography column (CHIRALDEX™ type B-TA Column, Advanced Separation Technologies, Inc.). Enantiomeric excess was determined by a comparison of peak areas.
The double mutants were evaluated for conversion of DCP, DCB, and TCP following growth on succinate in the presence of 1-chlorobutane as an inducer of the dehalogenase. […]

TDTM-003-60-2-11 = assay: Dehalogenation by double mutant strain TDTM-003-60-2-11 in shake flask with bulb feeder; assay type: cell-based, Rhodococcus sp.; settings: 28° C., 150 rpm, substrate from bulb feeder
From the text: as §2, §3
Dehalogenation of 1,2-dichloropropane by the double mutant strain of Rhodococcus sp., designated TDTM-003-60-2-11 was assayed in the following manner: 5 mL of an overnight culture (16 hours) were used as inoculum for 50 mL MM1X4P containing 5 g/L disodium succinate in a 250 mL flask. At 4 and 8 hours growth, 10 μL of 1-chlorobutane was added to induce the dehalogenase enzyme. Following 24 hours of growth, cells were harvested by centrifugation, resuspended into 50 mL of fresh MM1X4P, and transferred to a sterile 250 mL shake flask equipped with a bulb feeder. To the bulb feeder was added 1,2-dichloropropane and incubation continued at 28° C. and 150 rpm. […] The production of halohydrin products was monitored by gas chromatography. 1 -Chloro-2-propanol and 2-chloro-1-propanol accumulate linearly in the culture broth to 74 parts-per-million (ppm) (w/v) and 20 ppm (w/v) respectively after 120 hours. The overall rate of halohydrin production is 0.60 mg/g dry cells/hr.
The procedure described in Example 6 was followed except 1,2-dichlorobutanereplaced 1-chlorobutane in the bulb feeder.
The procedure described in Example 6 was followed except 1,2,3-trichloropropane replaced 1-chlorobutane in the bulb feeder.

TDTM-003 = assay: Utilization of carbon containing compounds for growth in liquid culture, TDTM-003; assay type: cell-based, Rhodococcus species; settings: strain TDTM-003, liquid culture

| Compound | Relative Rate of Chloride Release, 1-chlorobutane = 100 [1] | Relative Rate of Halogen Release, 1-Chlorobutane = 100 [2] | in vivo rates of conversion [3] [mg product/g dry cells/hr] | overall rate of halohydrin production (TDTM-003-60-2-11) [mg/g dry cells/hr] | utilization as a sole source of carbon (TDTM-003) |
| --- | --- | --- | --- | --- | --- |
| ClCC(Cl)CCl [1,2,3-trichloropropane] | 23 | 18.000 | 1.06 | 2.39 | – |
| CCC(Cl)CCl (stereo not shown) [1,2-dichlorobutane] | 108 | 33.000 | 1.29 | 2.47 | – |
| CC(Cl)CCl (stereo not shown) [1,2-dichloropropane] | 4.2 | 5.800 | 0.30 | 0.60 | does not utilize |
